Laboratory results reported in publication PMC4100783 (Biochemistry, 2014).
Several values for one entry are separate records, joined by “and”; a condition that tells them apart may be missing. Equal entries are not always repeated.

Columns and labels:
mftR [1] = settings: cited from earlier work
mftR [2] = format: binding, Burkholderia thailandensis
MftR D56S = format: binding, Burkholderia thailandensis
MftR-mftpO complex = format: biochemical, Burkholderia thailandensis
MftR W11F = format: binding, Burkholderia thailandensis
MftR-mftrO complex = format: biochemical, Burkholderia thailandensis
mftR [3] = format: binding, Burkholderia thailandensis; settings: read-out: K
MftR WT = target: T1, MftR WT (Burkholderia thailandensis E264, UniProt Q2SVY7 1-164); assay: EMSA
T1 sequence: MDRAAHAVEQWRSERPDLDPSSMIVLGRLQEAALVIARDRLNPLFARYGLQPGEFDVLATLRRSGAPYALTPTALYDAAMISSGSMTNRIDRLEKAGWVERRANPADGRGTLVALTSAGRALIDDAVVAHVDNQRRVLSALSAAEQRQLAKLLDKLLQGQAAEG

O=c1[nH]cnc2nc[nH]c12 [hypoxanthine]
effect on DNA binding by MftR (mftR [1]): inhibit DNA binding, albeit less efficiently than urate

O=c1[nH]c(=O)c2nc[nH]c2[nH]1 [xanthine]
effect on DNA binding by MftR (mftR [1]): inhibit DNA binding, albeit less efficiently than urate

O=c1[nH]c(=O)c2[nH]c(=O)[nH]c2[nH]1 [urate]
Tm of MftR (mftR [2]): 61.3 ± 1.0 °C
Tm of MftR D1 (mftR [2]): 49.2 ± 0.2 °C
Tm of MftR D2 (mftR [2]): 58.0 ± 0.1 °C
Tm of D56S (MftR D56S): 52.3 ± 0.3 °C and 51.3 ± 0.1 °C
IC50 (MftR-mftpO complex): 2200 µM
Tm of W11F (MftR W11F): 27.0 ± 0.1 °C and 28.8 ± 0.7 °C
increase of Tm compared to protein alone (MftR W11F): ~4 °C
IC50 (MftR-mftrO complex): 3700 ± 300 µM
Kd (mftR [3]): 6.1 ± 2.1 µM

B1: mftrO (dsDNA)
DNA 1: CGTCCAAGTTATCTTGACGTAGAGACATGTCGAATC
DNA 2: GATTCGACATGTCTCTACGTCAAGATAACTTGGACG
Kd (MftR WT): 0.0007 ± 0.0001 µM

B2: mftpO (dsDNA)
DNA 1: TGTCGAATCTATCTTGATGTCGAGACAATTATACGC
DNA 2: GCGTATAATTGTCTCGACATCAAGATAGATTCGACA
Kd (MftR WT): 0.0006 ± 0.0001 µM
